Test: Compound was tested for inhibitory activity against prostaglandin synthetase in mouse brain microsomes

Work on `C1=C(CCN2CCOCC2)c2ccccc2/C1=C/c1ccccc1` [4-(2-{3-[1-Phenyl-meth-(E)-ylidene]-3H-inden-1-yl}-ethyl)-morpholine] yielded an IC50 of 20 µM.

Source: BindingDB's records for doi:10.1016/0960-894X(95)00040-Z (1995)
